Data on one molecule can be found in patent US12629406B2, “Alterations in endothelin receptors following hemorrhage and resuscitation by centhaquin” (MIDWESTERN UNIVERSITY, priority 2018, dated 2026).

The nature of the experiment: Rat hemorrhagic shock, hypertonic saline resuscitation: cardiovascular response (MAP, HR, CO, SVR). The class given is in vivo. The following applies: for heart rate (HR): 60 minutes after resuscitation. Here is the method:
Animals. Male Sprague-Dawley rats (340 to 380 g) (Envigo, Indianapolis, IN) were housed for at least 4 days in a room with controlled temperature (23±1° C.), humidity (50±10%) and light (6:00 A.M. to 6:00 P.M.) before being used. Food and water were made available continuously. Animal care and use for experimental procedures were approved by the Institutional Animal Care and Use Committee of the Midwestern University. All anesthetic and surgical procedures were in compliance with the guidelines established by the Animal Care Committee.
Determination of cardiovascular response. The animals were anesthetized with urethane dissolved in isotonic saline. Urethane was administered in a dose of 1.5 g per kg body weight via intraperitoneal injection. Urethane was selected as an anesthetic agent, because it produces long lasting (8-10 hours) anesthesia with minimal cardiovascular and respiratory system depression. It produces a level of surgical anesthesia characterized by preservation of cardiovascular reflexes (Maggi and Meli 1986). Briefly, anaesthetized rats were immobilized on a surgical board equipped with controlled heating pad. Blood PO2, Pco2 and pH, were maintained using a tracheotomy cannula connected to a rodent ventilator (Model 683, Harvard Apparatus Inc., Holliston, MA). The right carotid artery was exposed to measure the left ventricular performance. Surgical suture (Deknatel, Research Triangle Park, NC) was secured around the proximal end of the carotid artery and an ultra-miniature pressure-volume (P-V) catheter SPR-869 (Millar Instruments, Houston, TX) was inserted through a tiny incision made near the proximal end of the artery. The P-V terminal of the catheter was connected to MPVS-300 P-V unit through PEC-4D and CEC-4B cables and advanced into the left ventricle to obtain the P-V signals. The signals were continuously aquired (1000 S^−1) using the MPVS-300 P-V unit (AD Instruments, Mountain View, CA, USA) and PowerLab 16/30 data acquisition system (AD Instruments). MAP and HR were measured by cannulating the left femoral artery with pressure catheter SPR-320 (Millar Instruments), connected to the ML221 bridge amplifier (AD Instruments) through AEC-10C connector and the signals were acquired (1000 S^−1) using PowerLab 16/30 data acquisition system (Gulati et al. 2012; Pacher et al. 2008). The left femoral vein was cannulated using PE 50 tubing (Clay Adams, Parsipanny, NJ) and secured for resuscitation.
Induction of Hemorrhagic Shock. Hemorrhage was induced by withdrawing blood from the femoral artery at a rate of approximately 0.5 to 1 mL/min until a MAP of 35 mmHg was reached. This MAP was maintained for 30 min by further withdrawal of blood, if necessary. The hemorrhagic shock model used in the present study is a well-established rodent model of manageable pressure hemorrhage (Buehler et al. 2000; Gulati et al. 1997a; Gulati and Sen 1998). The volume of blood loss was about approximately 8.0 ml in each rat and was similar in various groups, amounting to approximately 40% of the total blood. Measured hematocrit levels were similar in various groups. The duration of blood withdrawal was approximately 15 minutes.
Experimental design. To determine the resuscitative effect of centhaquin on cardiovascular system and plasma cytokines in hemorrhagic shock, rats were randomly divided into five groups, Group 1: Sham control (Non-hemorrhaged) (n=5), Group 2: Hemorrhage with no resuscitation (n=5); Group 3: Hemorrhage followed by resuscitation with 3% hypertonic saline (vehicle) (n=5); Group 4: Hemorrhage followed by resuscitation with vehicle plus centhaquin (0.017 mg/kg) (n=5); and Group 5: Hemorrhage followed by resuscitation with vehicle plus centhaquin (0.05 mg/kg) (n=5). Resuscitation was started 30 min after induction of hemorrhagic shock as an intravenous infusion (1 mL/min) through femoral vein using an infusion pump (Harvard Apparatus Infusion/Withdrawal Pump, Millis, MA). […]

`Cc1cccc(N2CCN(CCc3ccc4ccccc4n3)CC2)c1` [centhaquin, 2-[2-(4-(3-methyphenyl)-1-piperazinyl)]ethyl-quinoline]: the “cardiac output (CO) compared to hypertonic saline alone” value (30 and 60 min post resuscitation) is “significantly increased”. Besides, the “systemic vascular resistance (SVR)” value (30 and 60 minutes of resuscitation, versus post-hemorrhage) was “further decreased”. Moreover, the “heart rate (HR)” value reads like this: (centhaquin 0.017 mg/kg) 361±10 beats/min; (centhaquin 0.05 mg/kg) 363±10 beats/min. Besides, the “mean arterial pressure (MAP) post resuscitation” value (centhaquin 0.017 and 0.05 mg/kg, for at least 60 min, p<0.01) was “significant increase”. Moreover, the “difference in HR following resuscitation” value (hypertonic saline or centhaquin) is reported as “No significant difference”.
